Measured values: the supplement of paper PMC5412046
Counter-ions that a name gives are not always drawn.

Assays:
SB.msgc-1 [1] = test: area under the dose-response curve of % viability (trapezoidal, 11 doses) (% viability x log10 concentration); higher = less cytotoxic; settings: SB.msgc-1 (sporadic gastric cancer)
Procedure, shortened: (§1)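 After 48 h of compound exposure, viability of hereditary or sporadic patient-derived gastric cancer cells was measured by CellTiter-Glo luminescence. Compounds were added in DMSO at 11 threefold-diluted concentrations to 500 cells per 1536 well. Results are viability normalised to DMSO, either at the highest concentration or as trapezoidal area under the curve.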

SB.mhdgc-1 [2] = test: as above; settings: SB.mhdgc-1 (hereditary c.1380delA CDH1 gastric cancer)
Procedure, shortened: as §1

SB.msgc-1 [3] = test: viability at highest tested concentration (MAXR) relative to DMSO; higher = less cytotoxic; settings: SB.msgc-1 (sporadic gastric cancer)
Procedure, shortened: as §1

SB.mhdgc-1 [4] = test: as above; settings: SB.mhdgc-1 (hereditary c.1380delA CDH1 gastric cancer)
Procedure, shortened: as §1

| Compound | area under the dose-response curve (SB.msgc-1 [1]) | area under the dose-response curve (SB.mhdgc-1 [2]) | viability (SB.msgc-1 [3]) [%] | viability (SB.mhdgc-1 [4]) [%] |
| --- | --- | --- | --- | --- |
| C[C@@H]1O[C@@H](O[C@H]2C[C@@H](O)[C@]3(CO)[C@H]4[C@H](O)C[C@]5(C)[C@@H](C6=CC(=O)OC6)CC[C@]5(O)[C@@H]4CC[C@]3(O)C2)[C@H](O)[C@H](O)[C@H]1O [G-Strophanthin] (top concentration 46.0829 µM) | 279 | 310 | 34.8 | 22.5 |
| C[C@](N)(Cc1ccc(O)c(O)c1)C(=O)O [Methyldopa] (top concentration 46.0829 µM) | 519 | 469 | 105 | 63.7 |
| NC/1=N/C(=O)C2=C(N1)[N](C=N2)[C@@H]3C[C@H](O)[C@@H](CO)C3=C [Entecavir] (top concentration 46.0829 µM) | 494 | 512 | 58.3 | 40.3 |
| COc1ccc([S+](=O)([O-])Nc2cccnc2Nc2ccc(O)cc2)cc1 [E-7010] (top concentration 46.0829 µM) | 378 | 474 | 40.2 | 47 |
| COc1ccc(C(=O)N2CCCC2=O)cc1 [Aniracetam] (top concentration 46.0829 µM) | 543 | 477 | 61.1 | 35.3 |
| O=NN(CCCl)C(=O)NC1CCCCC1 [Lomustine] (top concentration 46.0829 µM) | 513 | 551 | 70.4 | 125 |
| COC1=C(CC=C(C)C)C2=C(\C=C/C(=O)O2)C=C1 [Osthol] (top concentration 46.0829 µM) | 517 | 464 | 63.8 | 41.5 |
| OCCN1C[C@H](O)[C@@H](O)[C@H](O)[C@H]1CO [Miglitol] (top concentration 46.0829 µM) | 560 | 529 | 123 | 106 |
| COc1c(C)c2c(c(O)c1C/C=C(\C)CCC(=O)O)C(=O)OC2 [Mycophenolic acid] (top concentration 46.0829 µM) | 519 | 502 | 73.8 | 66 |
| CCC(=O)OC1CCC2C3CCC/4=C/C(=O)CC[C@@]4(C)C3CC[C@]12C (stereo partly specified) [Testosterone propionate] (top concentration 46.0829 µM) | 484 | 540 | 83.4 | 106 |
| CN1CCN(CCCN2c3ccccc3Sc3ccc(C(F)(F)F)cc32)CC1 [Stelazine  trifluoperzine] (top concentration 46.0829 µM) | 490 | 404 | 7.54 | 4.15 |
| CCC[S+]([O-])c1ccc2[nH]c(NC(=O)OC)nc2c1 (stereo unspecified) [Albendazole Oxide] (top concentration 46.0829 µM) | 406 | 333 | 26.9 | 42.7 |
| COC(=O)[C@H](Cc1ccccc1)NC(=O)[C@@H](N)CC(=O)O [Aspartame] (top concentration 46.0829 µM) | 579 | 543 | 98.2 | 34 |
| CN[C@H]1CCC2=CC(=C(OC)C(=C2C/3=C/C=C(OC)\C(=O)/C=C13)OC)OC [Demecolcine] (top concentration 46.0829 µM) | 246 | 278 | 40 | 33.3 |
| CC[N+](CC)(CC)CCOc1cccc(OCC[N+](CC)(CC)CC)c1OCC[N+](CC)(CC)CC [Gallamine triethiodide] (top concentration 46.0829 µM) | 543 | 524 | 108 | 82.6 |
| CC[C@H](NC(C)C)[C@H](O)c1ccc(O)c2[nH]c(=O)ccc12 [Procaterol hydrochloride] (top concentration 46.0829 µM) | 530 | 517 | 99.5 | 104 |
| CC(=O)N1CCN(c2ccc(OCc3nn(C)c(C)c3-c3cccc4c(CCCOc5cc(C)c(Cl)c(C)c5)c(C(=O)O)n(Cc5cccnc5)c34)cc2)CC1 (top concentration 46.0829 µM) | 498 | 425 | 26.9 | 48.8 |
| C=C[C@H]1CN2CCC1C[C@@H]2C(O)c1ccnc2ccc(OC)cc12 (stereo partly specified) [Quinidine] (top concentration 46.0829 µM) | 523 | 599 | 104 | 75.6 |
| COC1=CC=C2CN(C)CC[C@@]34\C=C/[C@H](O)C[C@@H]3OC1=C24 [Galantamine hydrobromide] (top concentration 46.0829 µM) | 538 | 613 | 102 | 80.1 |
